Data from patent US20250171433A1, “A1H-BENZO[C][1,2]THIADIAZINE-2,2-DIOXIDES BEARING HETEROCYCLIC LINKERS AS SELECTIVE HISTONE DEACETYLASE 6 INHIBITORS” (Georgetown University, priority 2022, published 2025).
Like-named read-outs stand apart in the source and are kept apart here.

Key:
hHDAC6 = molecular target: T1, hHDAC6 (Homo sapiens, UniProt Q9UBN7); experiment: HDAC enzyme activity inhibition assay, HDAC6; type: biochemical; conditions: duplicate, performed by DRC; read-out: potency at hHDAC6
T1 construct: host or cells: baculovirus / Sf9 cells
T1 sequence (Q9UBN7 1-1215): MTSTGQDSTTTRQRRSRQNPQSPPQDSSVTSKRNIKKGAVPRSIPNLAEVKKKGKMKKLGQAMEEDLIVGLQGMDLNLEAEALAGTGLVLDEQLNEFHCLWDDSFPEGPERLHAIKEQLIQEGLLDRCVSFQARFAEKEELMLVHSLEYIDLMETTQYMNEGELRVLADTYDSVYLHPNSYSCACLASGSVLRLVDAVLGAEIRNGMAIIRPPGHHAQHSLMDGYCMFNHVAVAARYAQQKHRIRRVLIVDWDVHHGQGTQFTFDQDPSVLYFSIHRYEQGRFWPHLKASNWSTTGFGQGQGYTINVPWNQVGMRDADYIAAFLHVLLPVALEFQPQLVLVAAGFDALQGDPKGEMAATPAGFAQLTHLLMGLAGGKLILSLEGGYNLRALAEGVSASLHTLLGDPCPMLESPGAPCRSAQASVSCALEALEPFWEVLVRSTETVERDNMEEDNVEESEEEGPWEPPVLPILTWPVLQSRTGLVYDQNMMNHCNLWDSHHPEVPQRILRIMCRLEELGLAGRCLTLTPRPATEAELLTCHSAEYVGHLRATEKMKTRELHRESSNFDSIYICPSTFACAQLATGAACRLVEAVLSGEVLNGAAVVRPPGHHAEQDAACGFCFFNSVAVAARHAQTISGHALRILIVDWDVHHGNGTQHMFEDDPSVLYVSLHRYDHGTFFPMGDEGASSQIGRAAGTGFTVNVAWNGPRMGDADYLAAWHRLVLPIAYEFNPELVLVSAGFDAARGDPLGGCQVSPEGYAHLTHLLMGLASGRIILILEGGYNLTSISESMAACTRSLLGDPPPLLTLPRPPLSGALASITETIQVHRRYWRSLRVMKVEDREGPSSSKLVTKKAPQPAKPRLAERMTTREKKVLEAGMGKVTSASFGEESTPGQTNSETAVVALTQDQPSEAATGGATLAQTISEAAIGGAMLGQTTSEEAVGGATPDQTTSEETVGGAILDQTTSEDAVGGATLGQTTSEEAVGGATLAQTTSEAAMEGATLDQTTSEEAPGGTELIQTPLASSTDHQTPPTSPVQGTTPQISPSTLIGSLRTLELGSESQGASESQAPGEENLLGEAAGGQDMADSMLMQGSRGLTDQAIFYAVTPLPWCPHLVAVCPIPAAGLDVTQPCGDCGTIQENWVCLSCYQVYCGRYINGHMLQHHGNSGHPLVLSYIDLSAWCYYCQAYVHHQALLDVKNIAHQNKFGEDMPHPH
Protocol: (§1) The effectiveness, or potency, of a present HDAC6I with respect to inhibiting the activity of an HDAC is measured by an IC50 value. The quantitative IC50 value indicates the concentration of a particular compound that is needed to inhibit the activity of an enzyme by 50% in vitro. Stated alternatively, the IC50 value is the half maximal (50%) inhibitory concentration of a compound tested using a specific enzyme, e.g., HDAC, of interest.
(§2) The HDAC1, 2, 4, 5, 6, 7, 8, 9, 10, and 11 assays used isolated recombinant human protein; HDAC3/NcoR2 complex was used for the HDAC3 assay. Substrate for HDAC1, 2, 3, 6, 10, and 11 assays is a fluorogenic peptide from p53 residues 379-382 (RHKKAc); substrate for HDAC8 is fluorogenic diacyl peptide based on residues 379-382 of p53 (RHKAcKAc). Acetyl-Lys(trifluoroacetyl)-AMC substrate was used for HDAC4, 5, 7, and 9 assays. Compounds were dissolved in DMSO and tested in 10-dose IC50 mode with 3-fold serial dilution starting at 30 μM. […]
(§3) All IC50 values are automatically calculated using the GraphPad Prism version 5 and Equation of Sigmoidal dose-response (variable slope): […]
(§4) HDAC Activity Assays: HDAC assay is performed using fluorescently-labeled acetylated substrate, which comprises an acetylated lysine side chain. […] HDACs 1 and 6 were expressed as full length fusion proteins. […]

HDAC1 = molecular target: T2, HDAC1 (Homo sapiens, UniProt Q13547); experiment: HDAC enzyme activity inhibition assay, HDAC1; type: biochemical; conditions: DRC
T2 construct: host or cells: baculovirus / Sf9 cells
T2 sequence (Q13547 whole entry): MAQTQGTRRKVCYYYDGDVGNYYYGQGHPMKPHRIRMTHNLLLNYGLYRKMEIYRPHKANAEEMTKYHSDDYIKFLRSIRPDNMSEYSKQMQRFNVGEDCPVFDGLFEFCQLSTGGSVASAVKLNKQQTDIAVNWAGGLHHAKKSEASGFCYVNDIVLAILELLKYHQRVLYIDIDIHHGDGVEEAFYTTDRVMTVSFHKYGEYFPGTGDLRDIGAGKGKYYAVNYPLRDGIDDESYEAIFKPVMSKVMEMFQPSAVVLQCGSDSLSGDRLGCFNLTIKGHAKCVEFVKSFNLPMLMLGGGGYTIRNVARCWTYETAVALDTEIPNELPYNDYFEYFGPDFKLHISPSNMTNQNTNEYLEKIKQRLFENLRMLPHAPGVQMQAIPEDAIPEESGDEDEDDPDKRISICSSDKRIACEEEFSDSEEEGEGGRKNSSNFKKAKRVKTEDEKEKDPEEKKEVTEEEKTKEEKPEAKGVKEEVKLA
Protocol: as §1, §2, §3, §4

other HDAC subtypes = experiment: Inhibition of other HDAC subtypes at a single concentration; type: biochemical, human
Protocol: The HDAC1, 2, 4, 5, 6, 7, 8, 9, 10, and 11 assays used isolated recombinant human protein; HDAC3/NcoR2 complex was used for the HDAC3 assay. Substrate for HDAC1, 2, 3, 6, 10, and 11 assays is a fluorogenic peptide from p53 residues 379-382 (RHKKAc); substrate for HDAC8 is fluorogenic diacyl peptide based on residues 379-382 of p53 (RHKAcKAc). Acetyl-Lys(trifluoroacetyl)-AMC substrate was used for HDAC4, 5, 7, and 9 assays. Compounds were dissolved in DMSO and tested in 10-dose IC50 mode with 3-fold serial dilution starting at 30 μM. Control compound trichostatin A (TSA) was tested in a 10-dose IC50 mode with 3-fold serial dilution starting at 5 μM. IC50 values were extracted by curve-fitting the dose/response slopes. Assays were performed in duplicate, and IC50 values are an average of data from both experiments.

Kinetic solubility = type: physicochemical
Permeability and efflux = type: in vitro ADME
[1] = Clearance in human microsomes; type: in vitro ADME
[2] = Clearance in mouse microsomes; type: in vitro ADME
[3] = Free fraction in mouse plasma; type: in vitro ADME
[4] = Free fraction in human plasma; type: in vitro ADME
[5] = Chemical stability at pH 7.4 and 2; type: physicochemical
Mice iv PK = conditions: mouse, in vivo
[6] = Oral PK study with brain and sciatic nerve exposure; type: in vivo, mice
[7] = Reported functional activity
[8] = mouse, plasma, oral PK study, gavage

With `O=S1(=O)CCc2ccccc2N1Cc1ccc(-c2nnc(C(F)F)o2)cn1` [Compound 1, 1-[[5-[5-(Difluoromethyl)-1,3,4-axadiazol-2-yl)pyridin-2-yl]methyl]-3,4-dihydro-1H-benzo[c][1,2]thiazine-2,2-dioxide] the IC50 (hHDAC6) was 29 nM, the “selectivity against HDAC1” value (HDAC1) was “full selectivity” and the “% inh. at 10 μM versus other HDAC subtypes” value (other HDAC subtypes) was less than 20%. For the same compound, the kinetic solubility (Kinetic solubility) was “high”, the efflux (Permeability and efflux) was “low” and the permeability (Permeability and efflux) was “high”. For the same compound, the “clearance in human microsomes” value [1] was “low”, the “clearance in mouse microsomes” value [2] was “higher” and the microsomal CLint ([2]; mouse, compared with set criteria in Schedule B, species not given) was greater than 50 µL/min/mg. For the same compound, the “free fraction in mouse plasma” value [3] was “high”, the “free fraction in human plasma” value [4] was “high” and the “chemical stability at pH 2” value ([5]; pH 2) was “chemically stable”. The “chemical stability at pH 7.4” value ([5]; pH 7.4) was “chemically stable”, the clearance (Mice iv PK) was 44.9 mL/min/kg and the Kp at 1 h ([6]; mouse, brain and plasma, oral, @1 h, read-out: Brain/Plasma ratio) was 0.8. The Kp at 4 h ([6]; mouse, brain and plasma, oral, @4 h, read-out: Brain/Plasma ratio) was 1.2, the “concentrations detected in the brain and the sciatic nerve” value ([6]; mouse, in vivo) was “moderate” and the bioavailability ([6]; mouse, plasma, oral PK study) was 14.7%. For the same compound, the half-life ([6]; mouse, plasma, oral PK study) was 2.2 h, the Cmax [6, 8] was 456 ng/mL and the Tmax [6, 8] was 0.25 h. The MRT ([6]; mouse, plasma, oral PK study, read-out: mean residence time) was 3.14 h, the Kp at 1 h ([6]; mouse, sciatic nerve and plasma, oral, at 1 h, read-out: Sciatic nerve/plasma ratio) was 0.4 and the clearance ([6]; oral PK study) was “medium”. For the same compound, the volume of distribution ([6]; oral PK study) was “medium” and the reported functional activity [7] was 0.76 µM.
